Reference: patent publication US5028626A, “Peptides with pharmaceutical activity” (Zambon Group S.p.A., priority 1988, dated 1991)
pIC50: −log10 of the molar value. Where a name gives a salt, the structure may show the parent alone.

Assays:
[1] = molecular target: T1, purified aminopeptidase obtained from hog kidney (leucineaminopeptidase) (Sus scrofa, UniProt P28839); assay: Inhibitory effect on leucineaminopeptidase activity (L-leucinamide hydrolysis, absorbance at 238 nm); format: biochemical; settings: leucineamide 50 mM, tris-HCl pH 8.5, MgCl2 5 mM, 25° C., read-out: IC50 (concentration of the compound inducing a 50% decrease of the enzymatic activity)
T1 construct: a purified aminopeptidase obtained from hog kidney; purchased Baehringer (so in the source); host or cells: hog kidney tissue
T1 sequence (P28839 1-519): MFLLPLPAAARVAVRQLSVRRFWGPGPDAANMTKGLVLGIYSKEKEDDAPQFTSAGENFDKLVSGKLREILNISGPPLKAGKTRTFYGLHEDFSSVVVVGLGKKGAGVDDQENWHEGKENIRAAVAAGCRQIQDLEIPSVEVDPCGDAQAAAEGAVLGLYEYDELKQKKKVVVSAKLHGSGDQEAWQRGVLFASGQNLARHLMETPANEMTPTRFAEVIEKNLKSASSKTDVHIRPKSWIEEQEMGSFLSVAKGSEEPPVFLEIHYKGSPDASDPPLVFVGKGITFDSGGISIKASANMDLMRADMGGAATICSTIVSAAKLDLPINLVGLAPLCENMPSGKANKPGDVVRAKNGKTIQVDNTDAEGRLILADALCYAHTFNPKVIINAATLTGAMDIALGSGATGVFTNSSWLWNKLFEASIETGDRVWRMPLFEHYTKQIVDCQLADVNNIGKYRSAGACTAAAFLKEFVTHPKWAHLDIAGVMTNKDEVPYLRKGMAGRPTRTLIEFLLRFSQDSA
Description: (§1) The activity of the compounds of formula I has been evaluated as inhibitory effect on the activity of leucineaminopeptidase and as stimulating effect on the mitogenetic activity of mouse splenic lymphocytes.
The inhibitory effect of the tested compounds has been evaluated on a purified aminopeptidase obtained from hog kidney (Baehringer, 100U/mg).
The enzymatic activity was estimated spectrophotometrically by using L-leucinamide as substrate and by measuring the hydrolysis of the peptide bond as decrease of absorbance at 238 nm.
The enzyme was activated prior to assay at 37° C. for 2 hours, in the presence of MgCl2 1 mM and tris-HCl buffer 20 mM pH 8.5 in a total volume of 2.5 ml.
The enzymatic reaction was followed at 238 nm for at least 30 minutes at 25° C. in 2.5 ml of an incubation medium containing 50 μg of enzyme, leucineamide 50 mM, tris-HCl buffer 20 mM pH 8.5 and MgCl2 5 mM in the absence or in the presence of increasing concentrations of the tested compound.
The inhibitory effect was expressed as the concentration of the compound inducing a 50% decrease of the enzymatic activity (IC50, nmoles/1).

[2] = system: mouse splenic lymphocytes; assay: Immunostimulating (mitogenetic) activity: 3H-timidine incorporation in mouse splenic lymphocytes; format: cell-based, mouse (C3H/H2); settings: compound at 1 μM; 48 h + 24 h incubation with 3H-TMD
Experimental: as §1
The immunostimulating activity has been evaluated as ability to stimulate the incorporation of ^3 H-timidine (^3 H-TMD) in a culture of mouse splenic lymphocytes.
The splenic cells were drawn form C3H/H2 mice (age: 6-8 weeks) and suspended in RPMI-1640 medium containing HEPES 20 mM and 10% bovine fetal serum (inactivated to heat) at the concentration of 5×10^6 cells/ml.
Cells were sowed of Microtest plates (Falcon 3072) in the absence and in the presence of different concentrations of the compounds of formula I in a volume of 0.2 ml of medium.
After an incubation period of 48 hours at 37° C. in humidified environment at 5% CO2 /O2, 0.5 microCi of ^3 H-TMD (specific activity 2 Ci/mmoles) were added and the incubation was protracted for further 24 hours.
Cells were collected by filtration (Tretertek Cell Harnester) and the incorporated radioactivity was measured by Packard TRI-CARB 4530 scintillator.
The mitogenetic effect was expressed as percentage increase in the incorporation of ^3 H-TMD in lymphocytes incubated with the compounds of formula I at the concentration of 1 μM with respect to the basal incorporation value.

Question: How did the pIC50 [1] turn out when `CC(C)C[C@H](NC(=O)[C@@H](O)[C@H](N)Cc1ccc(S(C)(=O)=O)cc1)C(=O)O` [Example 3, N-[(2S,3R)-3-amino-2-hydroxy-4-(4-methylsulfonylphenyl)-butanoyl]-L-leucine] was run?
Answer: Its pIC50 is 8.00.

Question: How did the pIC50 [1] turn out when `CSc1ccc(C[C@@H](N)[C@H](O)C(=O)N[C@@H](CC(C)C)C(=O)O)cc1` [Example 11, N-[(2S,3R)-3-amino-2-hydroxy-4-(4-methylthiophenyl)-butanoyl]-L-leucine hydrobromide] was run?
Answer: The pIC50 was 7.96.

Question: Which “percentage increase in the incorporation of 3H-TMD in lymphocytes with respect to the basal incorporation value” [2] does the source give for `CC(C)C[C@H](NC(=O)[C@H](O)[C@@H](N)Cc1ccc(S(C)(=O)=O)cc1)C(=O)O` [Example 4, N-[(2R,3S)-3-amino-2-hydroxy-4-(4-methylsulfonylphenyl)-butanoyl]-L-leucine] here?
Answer: Its value is 109%.
